The values that follow come from US20250186439A1, “PYK2 INHIBITION MODULATES IMMUNE CELL FUNCTION” (The Children's Medical Center Corporation, priority 2022, published 2025).

“Also recorded” adds a separate entry of the source.

The test system of test [1] is MG6 cells. In words: Phagocytosis of Hilite-555 labelled Aβ42 by MG6 cells. The settings on record: 24 h inhibitor, Hilite-555 labelled Aβ42 500 ng/mL; listed as Pyk2 inhibitor. Format: cell-based, mouse. On the procedure: FIGS. 5A-5D. Characteristics of Pyk2 inhibition on phagocytotic activity in microglia. FIG. 5A: Immunofluorescent imaging depicting phagocytosis of pHrodo Red E. coli BioParticles by MG6 cells after exposure to Pyk2 inhibitors. MG6 cells were either untreated (left) or treated with 1000 nM Pyk2 inhibitor treatment for 24 hours (right). Immunofluorescent images were obtained via confocal microscopy (×600). MG6 cells were fixed and stained with phalloidin-AlexaFluor488 to visualize actin, and with DAPI to visualize nuclei (encircled). Scale bar is 20 μm. […] FIG. 5B: Immunofluorescent imaging depicting phagocytosis of pHrodo Red E. coli BioParticles by mononucleated and multinucleated MG6 cells after exposure to Pyk2 inhibitors. MG6 cells were treated and imaged as in FIG. 5A. After obtaining three-dimensional images, BioParticles are quantified by a spot analysis using IMARIS software (bottom figures). FIG. 5C: Quantification of spot analysis in FIG. 5B. The output of IMARIS spot analysis was analyzed using one-way ANOVA. […] FIG. 5D: Phagocytotic activity for Aβ in MG6 cells. Immunostaining for Iba1 and Aβ in control and Pyk2 inhibitor treated group. MG6 cells were treated with Pyk2 inhibitor or vehicle for 24 hours and then Hilite-555 labelled Aβ42 was added for 24 hours. Data are representative images of four wells from three independent experiments. […]

Test [2] relates to Lamp1. In words: Immunoblot of Lamp1 (lysosomal activity) in MG6 cells. Format: cell-based, mouse. The settings on record: 1000 nM, under β-amyloid stimulation. On the procedure: FIGS. 6A and 6B. Responses of lysosomal function in microglia to β-amyloid stimulation. FIG. 6A: Immunoblots of MG6 cells after treatment with Pyk2 inhibitor and β-amyloid oligomers. Cells were pretreated with 100 ng/mL CSF-1 and 1000 nM Pyk2 inhibitor (PF431396) for 24 hours as indicated, then cell lysates were harvested after treatment with 500 ng/mL β-amyloid for 24 hours (lanes 4-6). MG6 cell lysates were subjected to immunoblotting of phosphorylated Pyk2 (p-Pyk2), Lamp1, Erk, and phosphorylated Erk (p-Erk). Tubulin was used as a loading control. FIG. 6B: Quantification of immunoblotting depicted in FIG. 6A. Ratios of p-Pyk2/Pyk2, Lamp1/Tubulin, and p-Erk/Erk were calculated for MG6 cells pretreated with CSF-1 and a Pyk2 inhibitor, as indicated.
To assess lysosomal activity, Pyk2 inhibitor treated MG6 cells were also exposed to a disease-relevant substrate, β-amyloid protein, which is associated with progressive loss of neuronal function during Alzheimer's disease. After 24 hours of treatment with β-amyloid, control and Pyk2 inhibitor treated MG6 cells were collected, lysed, and immunoblotted in order to determine the relative protein levels of Pyk2, phosphorylated Pyk2, Lamp1, Erk, phosphorylated Erk, and tubulin (FIGS. 6A and 6B). […] However, in the presence of β-amyloid protein, an increase in Lamp1 was observed following treatment with Pyk2 inhibitor.
A general note: A western blot detects proteins with antibodies after separation by electrophoresis.

For test [3], the system named is MG6 cells. The test is described as follows: Proliferation of FACS-sorted mono-/multinuclear MG6 cells. Format: cell-based, mouse. The settings on record: 1000 nM, 24 h pretreatment. On the procedure: FIGS. 7A-7D. Pyk2 inhibition promotes the phagocytotic activity and inflammatory responses in microglia. FIG. 7A: Quantification of the effect of Pyk2 inhibitor treatment on proliferation of mononucleated and multinucleated MG6 cells. MG6 cells were pretreated with 1000 nM Pyk2 inhibitor for 24 hours and mono-/multi-nuclear cells were isolated and collected by fluorescent activated cell sorting. […] There is no difference in proliferation of mononuclear cells after Pyk2 inhibitor treatment compared to untreated control cells. FIG. 7B: Fluorescent imaging depicting the effect of Pyk2 inhibitor on phagocytosis of mononucleated and multinucleated MG6 cells. […] FIG. 7C: Quantification of phagocytosis of mononucleated and multinucleated MG6 cells over time. […] Fluorescence intensity was measured by fluorescence microplate reader at excitation/emission wavelengths of 560/580 nm. […] FIG. 7D: Quantification of the effect of Pyk2 inhibitor treatment on cytokine/chemokine levels of mononucleated and multinucleated MG6 cells. The relative mRNA levels of IL-6, IL-1β, IL-10, and TGF-β were measured by a real-time PCR (qPCR). Measured mRNA transcript levels are reported as the mean level±standard deviation (n=3; *: p-value<0.05; **: p-value <0.01; ***: p-value <0.005; ****: p-value <0.001; and *****: p-value <0.0005). […]

The test system of test [4] is IL-6, IL-1β, IL-10, and TGF-β mRNA. In words: Cytokine/chemokine mRNA levels (qPCR) in sorted MG6 cells. Format: cell-based, mouse. The settings on record: qPCR after inhibitor treatment. On the procedure:
FIGS. 7A-7D. Pyk2 inhibition promotes the phagocytotic activity and inflammatory responses in microglia. FIG. 7A: Quantification of the effect of Pyk2 inhibitor treatment on proliferation of mononucleated and multinucleated MG6 cells. MG6 cells were pretreated with 1000 nM Pyk2 inhibitor for 24 hours and mono-/multi-nuclear cells were isolated and collected by fluorescent activated cell sorting. […] There is no difference in proliferation of mononuclear cells after Pyk2 inhibitor treatment compared to untreated control cells. FIG. 7B: Fluorescent imaging depicting the effect of Pyk2 inhibitor on phagocytosis of mononucleated and multinucleated MG6 cells. MG6 cells were pretreated with 1000 nM Pyk2 inhibitor for 24 hours and mono-/multi-nuclear cells were isolated and collected by fluorescent activated cell sorting. After sorting, cells were treated with pHrodo Red E. coli BioParticles. Representative images are shown at ×20 magnification level. FIG. 7C: Quantification of phagocytosis of mononucleated and multinucleated MG6 cells over time. After Pyk2 inhibitor treatment and cell sorting, MG6 cells were treated with pHrodo Red E. coli BioParticles for the indicated time. Fluorescence intensity was measured by fluorescence microplate reader at excitation/emission wavelengths of 560/580 nm. […] FIG. 7D: Quantification of the effect of Pyk2 inhibitor treatment on cytokine/chemokine levels of mononucleated and multinucleated MG6 cells. The relative mRNA levels of IL-6, IL-1β, IL-10, and TGF-β were measured by a real-time PCR (qPCR). Measured mRNA transcript levels are reported as the mean level±standard deviation (n=3; *: p-value<0.05; **: p-value <0.01; ***: p-value <0.005; ****: p-value <0.001; and *****: p-value <0.0005).
Next, the differences in the activity of mononucleated and multinucleated microglial cells in response to Pyk2 inhibition was further assessed. […] Mononucleated and multinucleated MG6 cells also differed regarding the cytokines and chemokines produced by each (FIG. 7D).
For orientation: In qPCR the cycle at which signal appears reflects the starting amount.

Test [5] has as its system microglia. The test is described as follows: β-amyloid (Aβ42) brain infusion assay, microglia response in vivo. Also noted: species or system mouse. The settings on record: intracerebroventricular infusion before Aβ42 infusion. From the text:
FIGS. 9A-9B. FIG. 9A. Aβ brain infusion assay system. Using osmotic pump implanted to mice, an experimental system using intracerebroventricular injection was established to validate the morphological and molecular changes of microglia in response to Aβ42 in vivo. FIG. 9B. Activated microglia in the vicinity of amyloid plaques. Pyk2 inhibitor was infused into Iba1-EGFP transgenic mouse brain for 3 days and then Hylite-555 labelled-AP42 was infused into the brain using osmotic pump for the next 3 days. A 20 μm scale bar is in the bottom-left corner.
To test the morphological and molecular changes of microglia in response to Aβ42 in vivo a β-amyloid brain infusion assay was performed. An in vivo experimental system for […] was established with brain infusion pump inserted to left cerebral ventricle and treated Pyk2 inhibitor for 24 hours before Aβ42 infusion (FIG. 9A).

On to `CN(c1ccccc1CNc1nc(Nc2ccc3c(c2)CC(=O)N3)ncc1C(F)(F)F)S(C)(=O)=O` [PF-431396], for which, in test [1], the “phagocytosis of Aβ42” value is reported as “increased phagocytosis; also recorded: significantly higher”. For the same compound, the “Lamp1 (lysosomal activity)” value in test [2] is “increased”. Also, in test [2] (listed as Pyk2 inhibitor), the “Lamp1 (lysosomal activity)” value is “increase”. Further, in test [3], the “proliferation of sorted mononucleated MG6 cells vs untreated” value is reported as “no difference”. Also, the “proliferation of sorted multinucleated MG6 cells” value in test [3] (listed as Pyk2 inhibitor) is given as “slightly increased; also recorded: increased level”. Besides, in test [4], the “IL-1β expression, mononucleated MG6 cells” value is on record as “increased expression”; the “IL-1β expression, multinucleated MG6 cells” value is reported as “did not”; the “IL-6 expression, mononucleated MG6 cells” value is recorded as “increased expression”; the “IL-6 expression, multinucleated MG6 cells” value was “did not”. In test [4], the “IL-10, mononucleated MG6 cells” value is recorded as “reduction”; the “IL-10, multinucleated MG6 cells” value is reported as “reduction”; the “TGF-β expression, multinucleated MG6 cells” value was “increase”. Further, in test [5], the “expression of MHC class II molecules (e.g., H2-D1 and H2-K1) in microglia” value is “increased expression”; the “phagocytic activity near amyloid plaques” value was “enhanced”. In test [5] (listed as Pyk2 inhibitor), the “proportion of activated microglia” value is “a significant proportion of microglia were activated; also recorded: significantly larger proportion”.
